The values that follow come from EP2069533B1, “GENE […] FOR IDENTIFICATION, MONITORING AND TREATMENT OF MULTIPLE SCLEROSIS” (Life Technologies Corporation, priority 2006, dated 2008).

The test system of this experiment is IL1B. Put plainly: Whole blood response to E. coli filtrate with or without polymyxin B. Format: cell-based, human. To be noted: polymyxin B added to E. coli filtrate. From the text:
Figs. 27 through 41 illustrate the use of gene expression panels in early identification and monitoring of infectious disease. These figures plot the response, in expression products of the genes indicated, in whole blood, to the administration of various infectious agents or products associated with infectious agents. In each figure, the gene expression levels are "calibrated", as that term is defined herein, in relation to baseline expression levels determined with respect to the whole blood prior to administration of the relevant infectious agent. In this respect the figures are similar in nature to various figures of our below-referenced patent application WO 01/25473 (for example, Fig. 15 therein). The concentration change is shown ratiometrically, and the baseline level of 1 for a particular gene locus corresponds to an expression level for such locus that is the same, monitored at the relevant time after addition of the infectious agent or other stimulus, as the expression level before addition of the stimulus. Ratiometric changes in concentration are plotted on a logarithmic scale. Bars below the unity line represent decreases in concentration and bars above the unity line represent increases in concentration, the magnitude of each bar indicating the magnitude of the ratio of the change. […]
The responses were monitored at 2, 6, and 24 hours after administration. […]

Consider polymyxin B, for which the “response of IL1B to E. coli filtrate” value is on record as “did not affect the response”.
